From PubChem BioAssay AID1963980 (Molecular Pharmacology Branch, DTP, NCI, 2024)
One block for each compound: values may come before it.

Tested on: 475296-252-R-J1-PDC spheroid viability
Test: Anticancer human tumor 475296-252-R-J1-PDC patient-derived rectal carcinoma cell line growth inhibition [PI3K]
Settings: spheroids with HUVEC and MSC; for IC50: curve of first compound; for viability, T/C: stronger effect = lower value
Procedure, shortened: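 Tumor cells were combined with HUVEC and MSCs into spheroids, then dosed with PI3K-inhibitor combinations over half-log ranges capped near clinical Cmax or 10 microM.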
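Note: spheroids exposed to agents for seven days before readout.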

IC50 (second compound 0.0316 µM): > 10 µM
IC50 (second compound 0.1 µM): > 10 µM
IC50 (second compound 0.316 µM): > 10 µM
IC50 (second compound 1 µM): > 10 µM
IC50 (second compound 3.16 µM): > 10 µM
IC50 (second compound 10 µM): 9.12 µM
Structure (SMILES): CC1(C)CCC(Nc2ncc(C(F)(F)F)c(-c3c[nH]c4c(P(C)(C)=O)c(C#N)ccc34)n2)CN1 (centres undefined) + CC(Nc1ncnc2nc[nH]c12)c1cc2cccc(Cl)c2c(=O)n1-c1ccccc1
viability, T/C (second compound 0.0316 µM, first compound 0.0316 µM): 97.6%
viability, T/C (second compound 0.0316 µM, first compound 0.1 µM): 93%
viability, T/C (second compound 0.0316 µM, first compound 0.316 µM): 93.1%
viability, T/C (second compound 0.0316 µM, first compound 1 µM): 129%
viability, T/C (second compound 0.0316 µM, first compound 3.16 µM): 160%
viability, T/C (second compound 0.0316 µM, first compound 10 µM): 64.5%
viability, T/C (second compound 0.1 µM, first compound 0.0316 µM): 98%
viability, T/C (second compound 0.1 µM, first compound 0.1 µM): 91.5%
viability, T/C (second compound 0.1 µM, first compound 0.316 µM): 95.1%
viability, T/C (second compound 0.1 µM, first compound 1 µM): 117%
viability, T/C (second compound 0.1 µM, first compound 3.16 µM): 159%
viability, T/C (second compound 0.1 µM, first compound 10 µM): 52.2%
viability, T/C (second compound 0.316 µM, first compound 0.0316 µM): 93.8%
viability, T/C (second compound 0.316 µM, first compound 0.1 µM): 86.8%
viability, T/C (second compound 0.316 µM, first compound 0.316 µM): 114%
viability, T/C (second compound 0.316 µM, first compound 1 µM): 120%
viability, T/C (second compound 0.316 µM, first compound 3.16 µM): 164%
viability, T/C (second compound 0.316 µM, first compound 10 µM): 55.7%
viability, T/C (second compound 1 µM, first compound 0.0316 µM): 98.8%
viability, T/C (second compound 1 µM, first compound 0.1 µM): 92.9%
viability, T/C (second compound 1 µM, first compound 0.316 µM): 86.5%
viability, T/C (second compound 1 µM, first compound 1 µM): 139%
viability, T/C (second compound 1 µM, first compound 3.16 µM): 166%
viability, T/C (second compound 1 µM, first compound 10 µM): 54.1%
viability, T/C (second compound 3.16 µM, first compound 0.0316 µM): 91.9%
viability, T/C (second compound 3.16 µM, first compound 0.1 µM): 86%
viability, T/C (second compound 3.16 µM, first compound 0.316 µM): 89.6%
viability, T/C (second compound 3.16 µM, first compound 1 µM): 113%
viability, T/C (second compound 3.16 µM, first compound 3.16 µM): 154%
viability, T/C (second compound 3.16 µM, first compound 10 µM): 53.3%
viability, T/C (second compound 10 µM, first compound 0.0316 µM): 88.7%
viability, T/C (second compound 10 µM, first compound 0.1 µM): 81.6%
viability, T/C (second compound 10 µM, first compound 0.316 µM): 102%
viability, T/C (second compound 10 µM, first compound 1 µM): 128%
viability, T/C (second compound 10 µM, first compound 3.16 µM): 152%
viability, T/C (second compound 10 µM, first compound 10 µM): 44.7%

IC50 (second compound 0.00316 µM): 2.05 µM
IC50 (second compound 0.01 µM): 0.469 µM
IC50 (second compound 0.0316 µM): 0.162 µM
IC50 (second compound 0.1 µM): 0.0942 µM
IC50 (second compound 0.316 µM): 0.0271 µM
IC50 (second compound 1 µM): < 0.00949 µM
Structure (SMILES): Cn1cnc2c(F)c(Nc3ccc(Br)cc3Cl)c(C(=O)NOCCO)cc21 + COc1c(OCCCN2CCOCC2)ccc2c3n(c(=NC(=O)c4cnc(N)nc4)nc12)CCN3
viability, T/C (second compound 0.00316 µM, first compound 0.00949 µM): 88%
viability, T/C (second compound 0.00316 µM, first compound 0.03 µM): 75.5%
viability, T/C (second compound 0.00316 µM, first compound 0.0949 µM): 73.4%
viability, T/C (second compound 0.00316 µM, first compound 0.3 µM): 60.6%
viability, T/C (second compound 0.00316 µM, first compound 0.949 µM): 62.5%
viability, T/C (second compound 0.00316 µM, first compound 3 µM): 44.2%
viability, T/C (second compound 0.01 µM, first compound 0.00949 µM): 90.6%
viability, T/C (second compound 0.01 µM, first compound 0.03 µM): 90%
viability, T/C (second compound 0.01 µM, first compound 0.0949 µM): 63%
viability, T/C (second compound 0.01 µM, first compound 0.3 µM): 53.3%
viability, T/C (second compound 0.01 µM, first compound 0.949 µM): 53.8%
viability, T/C (second compound 0.01 µM, first compound 3 µM): 36.9%
viability, T/C (second compound 0.0316 µM, first compound 0.00949 µM): 84.1%
viability, T/C (second compound 0.0316 µM, first compound 0.03 µM): 63.3%
viability, T/C (second compound 0.0316 µM, first compound 0.0949 µM): 56.3%
viability, T/C (second compound 0.0316 µM, first compound 0.3 µM): 42.6%
viability, T/C (second compound 0.0316 µM, first compound 0.949 µM): 37%
viability, T/C (second compound 0.0316 µM, first compound 3 µM): 18.8%
viability, T/C (second compound 0.1 µM, first compound 0.00949 µM): 65%
viability, T/C (second compound 0.1 µM, first compound 0.03 µM): 67.6%
viability, T/C (second compound 0.1 µM, first compound 0.0949 µM): 48.7%
viability, T/C (second compound 0.1 µM, first compound 0.3 µM): 25.6%
viability, T/C (second compound 0.1 µM, first compound 0.949 µM): 16.5%
viability, T/C (second compound 0.1 µM, first compound 3 µM): 6.68%
viability, T/C (second compound 0.316 µM, first compound 0.00949 µM): 55.9%
viability, T/C (second compound 0.316 µM, first compound 0.03 µM): 49.8%
viability, T/C (second compound 0.316 µM, first compound 0.0949 µM): 29.4%
viability, T/C (second compound 0.316 µM, first compound 0.3 µM): 10.7%
viability, T/C (second compound 0.316 µM, first compound 0.949 µM): 5.48%
viability, T/C (second compound 0.316 µM, first compound 3 µM): 2.56%
viability, T/C (second compound 1 µM, first compound 0.00949 µM): 47.1%
viability, T/C (second compound 1 µM, first compound 0.03 µM): 41.5%
viability, T/C (second compound 1 µM, first compound 0.0949 µM): 22.2%
viability, T/C (second compound 1 µM, first compound 0.3 µM): 9.1%
viability, T/C (second compound 1 µM, first compound 0.949 µM): 5.23%
viability, T/C (second compound 1 µM, first compound 3 µM): 3.35%
